According to patent publication US20240239774A1, “SOLUBLE ADENYLYL CYCLASE (SAC) INHIBITORS AND USES THEREOF” (Cornell University, priority 2021, published 2024):
Values joined by “and” are separate entries in the source; they are usually repeats but may differ in a detail not shown here. Identical values can stand only once. “Also recorded” adds a separate entry of the source.

Legend:
[1] = system: human sperm; test: Acrosome reaction assay; assay type: cell-based; details: 5 μM Example 1 or 10 nM Example 133; 10 μM progesterone
Description: For analysis of acrosomal exocytosis, 100 μl of 1×10^7 sperm/ml were capacitated for 90 minutes in TYH buffer supplemented with 3 mg/ml BSA and 25 mM NaHCO3 (mouse sperm) or HTF buffer supplemented with […] HSA and 25 mM NaHCO3 (human sperm). sAC inhibitors were added with capacitating buffer; 0.1% DMSO was used as vehicle control. Acrosome reaction was induced by incubating mouse sperm with 50 mouse solubilized zonae pellucidae for 15 minutes at 37° C., or human sperm with 10 μM progesterone for 30 minutes at 37° C. The sperm suspensions were sedimented by centrifugation at 2,000×g for 5 minutes and the sedimented sperm were resuspended in 100 μl PBS buffer. Samples were air-dried on microscope slides and fixed for 30 minutes in 100% ethanol at room temperature (RT). For acrosome staining, mouse and human sperm were incubated for 30 minutes in the dark with 5 μg/ml PNA-FITC or 5 μg/ml PSA-FITC, respectively, and counterstained with 2 μg/ml DAPI. After curing, slides were analyzed using a Zeiss LSM 880 Laser Scanning Confocal Microscope; images were captured with two photomultiplier and one Gallium Arsenide Phosphide detector using ZEN Imaging software. For each condition, at least 600 cells were analyzed using ImageJ 1.52.

[2] = Serum levels after single i.p. injection; assay type: in vivo, mouse; details: single intraperitoneal (i.p.) injection
[3] = system: fertility of male mice; test: Timed mating of inhibitor-injected male mice; assay type: in vivo, mouse; details: for Contraceptive efficacy: compared to vehicle-injected control
Description: Single-housed naïve (i.e., uninjected and virgin) male and female C57B1/6 mice were acclimatized to reverse light cycle (dark: 11 am to 11 pm) for at least two weeks. […] Pregnancy and litter size were assessed in two ways. Either females were sacrificed 7 days following mating and implanted embryos counted, or females were permitted to go to term (21 days) and pups counted. A subset of the pups (both male and female) born from breakthrough pregnancies were permitted to mature and their fertility assessed in standard matings.

[4] = system: mouse sperm; test: Intracellular cAMP in sperm in vitro; assay type: cell-based; details: for bicarbonate-induced cAMP rise: 5 μM Example 1 or 10 nM Example 133, capacitating media, 12 minutes
Description: (§1) cAMP generation was measured in mouse and human sperm. For mouse sperm, aliquots of 2×10^6 mouse sperm were incubated for 12 minutes in the presence or absence of sAC inhibitor in non-capacitating or capacitating TYH buffer. For human sperm, aliquots of 2×10^6 human sperm were incubated for 30 minutes in the presence or absence of sAC inhibitor in non-capacitating or capacitating HTF buffer. In both cases, 0.1% DMSO was used as vehicle control.
(§2) After 5 min, 150 μl of sperm/inhibitor mix was diluted into 1.35 ml non-capacitating or capacitating media with no inhibitor. After 12 minutes (mouse sperm) or 30 minutes (human sperm), sperm were sedimented by centrifugation at 2,000×g for 3 minutes and lysed in 200 μl HCl for 10 minutes. Sperm lysates were centrifuged at 2,000×g for 3 minutes and the cAMP in the supernatant was acetylated and quantified using the Direct cAMP ELISA (Enzo).

[5] = system: human sperm; test: Intracellular cAMP in sperm in vitro; assay type: cell-based; details: for bicarbonate-induced cAMP rise: 5 μM Example 1 or 10 nM Example 133, capacitating media
Description: as §1, §2

[6] = system: wild type C57B1/6 male mice; test: Imiquimod-induced type 17 skin inflammation, topical treatment; assay type: in vivo, mouse
Description: Wild type C57B1/6 male mice 8-10 week old were purchased from Jackson labs. A 7 mm diameter circle was shaved and treated with Nair on the flank. Baseline ear thickness was measured. For 5 days, mice received daily treatment of 30 mg of 5% imiquimod cream (Taro) to each ear and to the 7 mm area on the flank. Ear thickness was recorded on days 3 and 5 to ensure peak inflammation had occurred. Mice were then randomized into three cohorts: vehicle, LRE1, and Clobetasol. […] Treatment with imiquimod was continued during this period as above. Ear thickness was recorded every day before the first dose of drug. On day 11, all mice were euthanized. A 7 mm punch biopsy was collected from the flank and both ears were removed. Skin was stored in RNAlater (Sigma) for qPCR or 10% formalin for immunohistochemistry.
For tissue, RNA was isolated according to specifications of the RNA easy plus universal mini kit (Qiagen). Tissue was homogenized using stainless steel beads in a bead beater. For frozen cell pellets, RNA was isolated according to specifications of the RNA easy plus mini kit (Qiagen). Samples were homogenized using Qiashredder columns (Qiagen). RNA quality control was performed using a nanodrop spectrophotometer. cDNA was made using the high-capacity rna-to-cdna kit (thermo fischer). The applied biosystems power SYBR green PCR master mix was used for qPCR. 40 cycles with annealing temperatures of 60 degrees celsius and a melting curve were performed using the QuantStudio 6 real-time PCR instrument (thermo fischer). Delta delta CT analysis was performed to determine relative transcription amongst samples normalized to GAPDH.

[7] = system: wild type (WT) C57B1/6 mouse eyes; test: Intraocular pressure (IOP) study; assay type: in vivo; details: one hour post ip injection
Description: A mouse was anesthetized via intraperitoneal (ip) injection of room temperature ketamine/xylazine. Anesthesia was assessed by pinching back. The anesthetized mouse was placed on a platform. The anterior chamber was cannulated using a 33-gauge stainless steel needle. The needle was inserted anterior to the limbus and through the cornea. The cannula was connected to a pressure transducer using teflon tubing and was calibrated to a water height equivalent of 0 mm Hg. The transducer signal was amplified, converted to a digital signal, and the voltage was recorded using LabScribe3 software. IOP was calculated by comparing the change in voltage to a standard calibration curve generated at the end of each experiment using the water height column.

[8] = system: mouse oocytes with capacitated wild-type sperm; test: In vitro fertilization; assay type: cell-based
Description: In vitro fertilization: On the day of preparation, sperm were capacitated for 90 min in HTF medium (EmbryoMax Human Tubal Fluid; Merck Millipore). 100 μl drops of HTF were covered with medium/oil mixture (HTF mixed 1:1 with mineral oil), and 10^5 sperm were added to each drop. Cumulus-enclosed oocytes were prepared from the oviducts of superovulated females and added to the drops. […] The number of 2-cell stages was evaluated after 24 hr.

[9] = 50 mg/kg i.p. to males, mating time 5 hours
[10] = 50 mg/kg i.p. to males, mating time 8 hours
[11] = 50 mg/kg i.p. to males, mating time 11 hours
[12] = 50 mg/kg i.p., mating 4 days, 1 week post-injection (recovery of fertility)
[13] = preincubation 5 min in 5 μM Example 1 or 10 nM Example 133, then dilution (legend 1:10; text 100-fold)

In the case of `Nc1nc(Cl)cc(-c2nn(C(F)F)cc2Cc2ccccc2OCCN2CCOC[C@H]2CO)n1` [Example 133], the “blocking acrosome reaction induced by progesterone” value [1] is reported as “more potent than Example 1”, the “time to maximum serum levels (C max)” value [2] is reported as no more than 7.5 min and the “mouse behavior, movements and mating behaviors” value ([3]; 50 mg/kg i.p.) is reported as “did not adversely affect mouse behavior”. For the same compound, the “Pregnancy pairings (pregnancies per total pairings)” value [3, 9] was “(3/92)”, the Pregnancy rate [3, 9] was 3.3% and 3.2% and the Contraceptive efficacy [3, 9] was 90%. For the same compound, the “Pregnancy pairings (pregnancies per total pairings)” value [3, 10] was “(3/40)”, the Pregnancy rate [3, 10] was 7.2% and 7.5% and the Contraceptive efficacy [3, 10] was 82%. The “Pregnancy pairings (pregnancies per total pairings)” value [3, 11] was “(7/45)”, the Pregnancy rate [3, 11] was 16% and 15.6% and the Contraceptive efficacy [3, 11] was 65%. The “Pregnancy pairings (pregnancies per total pairings)” value [3, 12] was “(13/14)”, the Pregnancy rate [3, 12] was 93% and 92.9% and the “bicarbonate-induced cAMP rise” value [4] was “completely block”. For the same compound, the “inhibition of bicarbonate-induced cAMP synthesis after dilution into inhibitor-free media” value [4, 13] was “survived a 100-fold dilution; also recorded: inhibits capacitation induced cAMP rise in diluted sperm”, the “bicarbonate-induced cAMP rise” value [5] was “completely block” and the “inhibition of bicarbonate-induced cAMP synthesis after dilution into inhibitor-free media” value [5, 13] was “survived a 100-fold dilution; also recorded: inhibits capacitation induced cAMP rise in diluted sperm”.

For `Cc1c(Cc2ccccc2)c(-c2cc(Cl)nc(N)n2)nn1C` [Example 1, 4-(4-benzyl-1,5-dimethyl-pyrazol-3-yl)-6-chloro-pyrimidin-2-amine], the “inflammation in the ears measured by ear calipers” value ([6]; applied at the same time as imiquimod, N=5) was “reduce the inflammation”, the “skin inflammation (ear thickness)” value ([6]; imiquimod 6 days, then continued imiquimod plus topical twice a day: LRE1 3%, Example 1 […], Clobetasol 0.05%) was “significant reduction in skin inflammation” and the reduction in inflammation ([6]; imiquimod for one week, then imiquimod plus compound, over 4 days, N=5) was 50%. For the same compound, the “time to maximum serum levels (C max)” value [2] was no more than 7.5 min, the “intraocular pressure (IOP)” value [7] was “dose dependently elevates IOP” and the “Pregnancy pairings (pregnancies per total pairings)” value [3, 10] was “(14/45)”. The Pregnancy rate [3, 10] was 31.1%, the Contraceptive efficacy [3, 10] was 25% and the “amount of 2-cell stage oocytes” value ([8]; 5 μM, control 30%) was 10%. For the same compound, the fertilization in vitro ([8]; 50 μM) was “fully blocked fertilization”, the “bicarbonate-induced cAMP rise” value [4] was “blocks the bicarbonate-induced cAMP rise” and the “bicarbonate-induced cAMP rise” value [5] was “blocks the bicarbonate-induced cAMP rise”.
